Experiments:
Tyk2 = Tyk2 (Homo sapiens (Human), UniProt P29597); test: Biochemical JAK and Tyk2 Kinase Assays (LanthaScreen), Tyk2; conditions: 10 μM ATP (Km); pIC50 converted to pKi by Cheng-Prusoff
JAK1 = JAK1 (Homo sapiens (Human), UniProt P23458); test: Biochemical JAK and Tyk2 Kinase Assays (LanthaScreen), JAK1; conditions: 25 μM ATP (Km); pIC50 converted to pKi by Cheng-Prusoff
JAK3 = JAK3 (Homo sapiens (Human), UniProt P52333); test: Biochemical JAK and Tyk2 Kinase Assays (LanthaScreen), JAK3; conditions: 1.6 μM ATP (Km); pIC50 converted to pKi by Cheng-Prusoff
Sequence of JAK3 (P52333 whole entry): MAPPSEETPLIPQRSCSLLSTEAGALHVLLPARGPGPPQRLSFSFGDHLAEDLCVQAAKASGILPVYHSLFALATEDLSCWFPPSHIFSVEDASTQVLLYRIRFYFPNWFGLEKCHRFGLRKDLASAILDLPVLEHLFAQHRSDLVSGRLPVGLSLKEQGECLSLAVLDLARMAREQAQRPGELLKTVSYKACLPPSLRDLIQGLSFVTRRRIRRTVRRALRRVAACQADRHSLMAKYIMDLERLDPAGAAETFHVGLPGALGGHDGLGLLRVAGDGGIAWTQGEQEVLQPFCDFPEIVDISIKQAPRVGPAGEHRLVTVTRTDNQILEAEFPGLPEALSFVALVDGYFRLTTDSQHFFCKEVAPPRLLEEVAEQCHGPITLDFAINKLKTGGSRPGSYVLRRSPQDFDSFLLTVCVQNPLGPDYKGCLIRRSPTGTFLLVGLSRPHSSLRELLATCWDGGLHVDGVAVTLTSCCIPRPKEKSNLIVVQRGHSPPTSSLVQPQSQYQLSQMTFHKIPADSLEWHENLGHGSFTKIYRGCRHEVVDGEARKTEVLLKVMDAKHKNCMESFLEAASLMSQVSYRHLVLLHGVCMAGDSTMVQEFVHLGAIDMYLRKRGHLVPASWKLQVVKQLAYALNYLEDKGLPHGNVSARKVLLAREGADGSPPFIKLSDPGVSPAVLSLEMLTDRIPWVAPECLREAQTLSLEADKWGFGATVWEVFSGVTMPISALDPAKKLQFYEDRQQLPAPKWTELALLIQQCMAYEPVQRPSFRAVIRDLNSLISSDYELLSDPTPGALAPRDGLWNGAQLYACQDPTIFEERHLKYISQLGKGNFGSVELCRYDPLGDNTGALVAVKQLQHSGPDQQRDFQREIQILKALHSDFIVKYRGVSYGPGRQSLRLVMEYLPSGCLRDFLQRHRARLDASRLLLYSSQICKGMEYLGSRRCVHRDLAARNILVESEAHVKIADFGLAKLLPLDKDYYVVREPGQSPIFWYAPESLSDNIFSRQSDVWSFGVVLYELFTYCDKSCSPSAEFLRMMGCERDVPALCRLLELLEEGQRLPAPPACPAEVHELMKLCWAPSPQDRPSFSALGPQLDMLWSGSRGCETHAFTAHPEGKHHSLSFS

Caco-2 cell monolayer = test: Caco-2 Permeation Assay; type: in vitro ADME; conditions: Papp, 5 μM compound
How it was run: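 Compound at 5 μM, in duplicate, crosses Caco-2 monolayers apical to basal over 120 min at 37 °C. This is run with and without 25 μM verapamil to test for P-gp efflux. Samples are quantified by LC-MS/MS, and Papp in cm/sec is calculated as dQ/(dt × area × concentration).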

[1] = Human Liver Microsome Assay; conditions: human liver microsomes 0.1 mg/mL, 0.1 μM compound, 1 mM NADPH, 37° C.
Description: Assay 4: Human Liver Microsome Assay
The objective of this assay was to assess the metabolic stability of test compounds in an in vitro human liver sub-fraction. Human liver microsomes obtained from Bioreclamation-IVT (Baltimore, Md.) were thawed on ice and diluted into 0.1 M potassium phosphate buffer pH 7.4 to yield final incubation protein concentrations of 0.1 mg/mL. Test compounds (10 mM) were diluted into NADPH cofactor to yield final incubation concentrations of 0.1 μM test compound and 1 mM NADPH. Incubations were conducted at 37° C. temperature and test aliquots were taken at time points 0, 5, 8, 15, 30 and 45 minutes. Each aliquot was crashed into water with 3% formic acid and 1 μM internal standard. The resulting samples were injected onto an LC-MS/MS system for analysis.
For each incubation, the peak area of the analytes in each t0 aliquot was set to 100% and the peak areas from subsequent time point aliquots were converted to percentage of parent compound remaining relative to t0. The percentage of parent compound remaining was converted to natural log scale and plotted versus time in minutes. A linear regression analysis was performed for the initial decline of the parent disappearance profile and a formula for the best-fit line determined. The slope of the resultant line was normalized to protein concentration in mg/mL protein or number of cells/mL and CLint was calculated as follows for liver microsomes: CLint(μL·min^−1·mg^−1)=(Slope×1000)/[protein,mg/mL]
CLint values from 9-49 μl/min/mg represent moderate clearance (i.e. 30-70% of hepatic blood flow in human) and values >50 μl/min/mg represent high hepatic clearance (i.e. >70% of hepatic blood flow in human).

Aqueous Solubility Assay = conditions: PBS buffer pH 7.4; maximum upper limit 1,000 μM
Description: Assay 5: Aqueous Solubility Assay
The purpose of this assay was to quantify the solubility of test compounds in pH 4 and pH 7.4 PBS buffers. The assay required 40 μL of 10 mM DMSO test compound solution per desired buffer in addition to 20 μL required to make a test standard. For example, to test a compound in both buffers, 100 μL (2*40 μL+20 μL) of 10 mM DMSO compound stock solution was required.
The standard was created by diluting 20 μL of 10 mM DMSO compound stock solution into 180 μL of methanol and was shaken for five minutes to ensure solution uniformity. […] This 1,000 μM solution was run on an Agilent 1260 LC-MS system by injecting 2 μL in order to obtain the peak area. For the test solutions, 40 μL of 10 mM DMSO compound stock solution, per PBS buffer condition, were dried down into a powder overnight. Once in powder form, 400 μL of the desired PBS buffer was added to the powder and allowed to shake vigorously for four hours. The maximum theoretical concentration for this sample solution was 1,000 μM. After four hours of shaking, the samples were centrifuged for 10 minutes at 3,000 RPM before injecting 2 μL on the same Agilent 1260 LC-MS system to obtain the peak area.
In Table 6 below, A represents a value above 500, B represents a value between 250 and 500, C represents a value between 50 and 250, D represents a value between 10 and 50, and E represents a value below 10.

[2] = tested on: IL-2 stimulated pSTAT5 in Tall-1 T cells; test: Inhibition of IL-2 Stimulated pSTAT5 in Tall-1 T Cells; type: cell-based; conditions: Tall-1 human T cell line, IL-2 300 ng/mL, AlphaLisa
How it was run: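 Cells preincubated with compound 1 hour at 37° C, then stimulated with IL-2 (final 300 ng/mL) for 30 minutes. After lysis, pSTAT5 (Tyr694/699) read by AlphaLISA luminescence. IC50 from inhibition curves, reported as pIC50 (mean±SD).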

JAK2 = JAK2 (Homo sapiens (Human), UniProt O60674); test: Biochemical JAK and Tyk2 Kinase Assays (LanthaScreen), JAK2; conditions: 3 μM ATP (Km); pIC50 converted to pKi by Cheng-Prusoff
Sequence of JAK2 (O60674 whole entry): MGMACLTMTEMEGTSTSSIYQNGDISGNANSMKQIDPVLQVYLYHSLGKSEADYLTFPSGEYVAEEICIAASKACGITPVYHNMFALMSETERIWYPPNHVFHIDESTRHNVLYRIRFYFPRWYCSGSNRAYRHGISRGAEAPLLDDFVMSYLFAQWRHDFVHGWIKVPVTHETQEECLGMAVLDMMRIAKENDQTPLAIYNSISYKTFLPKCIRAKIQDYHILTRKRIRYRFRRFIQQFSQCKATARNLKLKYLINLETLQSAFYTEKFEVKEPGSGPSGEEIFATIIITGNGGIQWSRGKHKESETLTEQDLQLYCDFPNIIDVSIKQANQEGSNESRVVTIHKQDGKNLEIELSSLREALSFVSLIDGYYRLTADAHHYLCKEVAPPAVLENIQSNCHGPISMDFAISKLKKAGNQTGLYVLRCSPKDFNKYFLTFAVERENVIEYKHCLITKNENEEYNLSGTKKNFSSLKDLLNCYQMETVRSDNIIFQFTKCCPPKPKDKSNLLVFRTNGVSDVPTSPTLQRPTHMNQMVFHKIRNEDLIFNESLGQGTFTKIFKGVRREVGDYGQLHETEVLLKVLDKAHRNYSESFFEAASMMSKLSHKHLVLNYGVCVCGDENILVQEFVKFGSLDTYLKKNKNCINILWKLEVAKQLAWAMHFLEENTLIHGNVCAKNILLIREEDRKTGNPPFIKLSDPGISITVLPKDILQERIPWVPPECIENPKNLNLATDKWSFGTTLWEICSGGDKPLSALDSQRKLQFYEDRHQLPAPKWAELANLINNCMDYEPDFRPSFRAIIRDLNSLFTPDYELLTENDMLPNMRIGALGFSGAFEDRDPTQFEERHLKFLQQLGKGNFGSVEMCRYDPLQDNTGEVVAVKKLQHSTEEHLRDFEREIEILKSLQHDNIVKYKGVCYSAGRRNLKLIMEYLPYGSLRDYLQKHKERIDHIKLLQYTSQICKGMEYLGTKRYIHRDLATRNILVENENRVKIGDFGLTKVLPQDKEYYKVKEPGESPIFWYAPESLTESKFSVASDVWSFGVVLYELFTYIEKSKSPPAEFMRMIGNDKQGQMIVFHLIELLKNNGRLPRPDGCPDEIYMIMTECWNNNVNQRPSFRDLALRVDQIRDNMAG

Sequence of JAK1 (P23458 whole entry): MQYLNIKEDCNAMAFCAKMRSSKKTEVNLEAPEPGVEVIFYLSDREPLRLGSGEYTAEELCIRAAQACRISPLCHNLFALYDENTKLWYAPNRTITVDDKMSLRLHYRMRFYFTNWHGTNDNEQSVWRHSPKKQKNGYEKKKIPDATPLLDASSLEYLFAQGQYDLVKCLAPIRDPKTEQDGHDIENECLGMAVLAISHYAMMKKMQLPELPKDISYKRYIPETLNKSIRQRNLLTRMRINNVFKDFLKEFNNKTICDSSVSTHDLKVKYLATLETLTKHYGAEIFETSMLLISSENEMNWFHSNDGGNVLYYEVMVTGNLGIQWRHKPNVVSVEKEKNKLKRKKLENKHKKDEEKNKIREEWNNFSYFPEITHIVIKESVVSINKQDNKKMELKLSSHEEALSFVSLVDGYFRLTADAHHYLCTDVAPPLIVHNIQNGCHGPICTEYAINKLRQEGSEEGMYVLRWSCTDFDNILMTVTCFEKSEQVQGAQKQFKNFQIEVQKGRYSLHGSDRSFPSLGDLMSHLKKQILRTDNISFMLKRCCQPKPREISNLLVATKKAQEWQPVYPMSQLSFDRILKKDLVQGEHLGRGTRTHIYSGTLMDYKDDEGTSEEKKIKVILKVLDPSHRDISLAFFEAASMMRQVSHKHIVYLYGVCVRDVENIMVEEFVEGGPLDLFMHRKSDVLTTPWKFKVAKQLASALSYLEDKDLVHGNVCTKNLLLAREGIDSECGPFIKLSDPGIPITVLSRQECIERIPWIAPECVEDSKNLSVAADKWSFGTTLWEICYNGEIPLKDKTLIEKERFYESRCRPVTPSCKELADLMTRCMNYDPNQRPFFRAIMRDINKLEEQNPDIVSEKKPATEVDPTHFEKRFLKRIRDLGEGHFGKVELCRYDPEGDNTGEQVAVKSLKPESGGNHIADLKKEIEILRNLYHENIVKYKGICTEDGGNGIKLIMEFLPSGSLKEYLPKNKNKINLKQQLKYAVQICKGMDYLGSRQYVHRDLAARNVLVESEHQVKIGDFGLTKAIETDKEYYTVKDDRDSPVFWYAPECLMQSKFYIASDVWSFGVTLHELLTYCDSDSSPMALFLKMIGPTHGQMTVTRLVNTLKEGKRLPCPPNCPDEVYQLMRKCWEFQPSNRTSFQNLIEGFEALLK
Sequence of Tyk2 (P29597 whole entry): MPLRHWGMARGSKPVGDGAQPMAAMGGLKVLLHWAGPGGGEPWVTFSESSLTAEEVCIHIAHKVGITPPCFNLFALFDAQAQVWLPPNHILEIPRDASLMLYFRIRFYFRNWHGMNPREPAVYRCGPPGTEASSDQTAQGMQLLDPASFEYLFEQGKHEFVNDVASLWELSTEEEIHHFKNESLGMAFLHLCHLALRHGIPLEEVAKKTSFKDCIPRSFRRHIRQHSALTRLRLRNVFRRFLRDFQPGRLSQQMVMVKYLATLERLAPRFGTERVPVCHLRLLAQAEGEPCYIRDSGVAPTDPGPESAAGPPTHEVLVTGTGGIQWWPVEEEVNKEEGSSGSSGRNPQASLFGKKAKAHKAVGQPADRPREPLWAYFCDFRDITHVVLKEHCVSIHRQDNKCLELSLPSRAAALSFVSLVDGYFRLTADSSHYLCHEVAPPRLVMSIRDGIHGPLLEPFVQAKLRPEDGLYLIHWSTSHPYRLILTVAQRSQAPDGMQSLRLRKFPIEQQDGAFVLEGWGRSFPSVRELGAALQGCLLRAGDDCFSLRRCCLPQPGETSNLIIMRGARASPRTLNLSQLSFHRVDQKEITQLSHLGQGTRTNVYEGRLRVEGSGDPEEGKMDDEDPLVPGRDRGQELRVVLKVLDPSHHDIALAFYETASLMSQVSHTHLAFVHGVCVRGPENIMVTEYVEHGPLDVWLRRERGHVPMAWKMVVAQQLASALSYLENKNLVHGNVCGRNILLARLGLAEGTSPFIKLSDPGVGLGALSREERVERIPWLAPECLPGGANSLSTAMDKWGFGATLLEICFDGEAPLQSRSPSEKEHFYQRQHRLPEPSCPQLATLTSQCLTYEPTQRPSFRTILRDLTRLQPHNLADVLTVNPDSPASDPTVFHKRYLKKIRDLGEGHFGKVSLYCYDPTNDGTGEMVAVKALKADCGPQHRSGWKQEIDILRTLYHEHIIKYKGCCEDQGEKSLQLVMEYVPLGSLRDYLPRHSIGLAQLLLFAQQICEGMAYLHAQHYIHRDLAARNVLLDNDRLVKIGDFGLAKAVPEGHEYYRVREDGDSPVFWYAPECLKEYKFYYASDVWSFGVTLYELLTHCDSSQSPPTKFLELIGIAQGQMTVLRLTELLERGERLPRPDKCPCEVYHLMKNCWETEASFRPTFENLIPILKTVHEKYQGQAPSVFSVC

SMILES: CCS(=O)(=O)N1[C@@H]2CCC[C@H]1C[C@H](N(C)c1nc(Nc3cc(C)[nH]n3)cc([C@@H]3CCCO3)n1)C2 [Compound 10]
- Tyk 2 (pKi) (Tyk2): A (A represents a pKi value ≥10 (Ki≤0.1 nM))
- JAK 1 (pKi) (JAK1): A (A represents a pKi value ≥10 (Ki≤0.1 nM))
- JAK 3 (pKi) (JAK3): B (B represents a pKi value between 9 and 10 (Ki between 1 nM and 0.1 nM))
- Cacoverap Kp 10^−6 cm/sec (Caco-2 cell monolayer; A→B in the presence of 25 μM verapamil (P-gp inhibitor)): A (A represents a value above 35×10^−6 cm/sec)
- Caco Kp 10^−6 cm/sec (Caco-2 cell monolayer; apical to basal (A→B)): A (A represents a value above 30×10^−6 cm/sec)
- HLM Clin μL/min/mg [1]: A (A represents a Clint value between 1250 and 3000)
- Solubility at PH 7.4 (μmol) (Aqueous Solubility Assay): C (C represents a value between 50 and 250)
- Tall-1 IL2 pSTAT5 (pIC50) [2]: A (A represents a pIC50 value ≥8.0)
- JAK 2 (pKi) (JAK2): A (A represents a pKi value ≥10 (Ki≤0.1 nM))

From patent US11439641B2, “Pyrimidine JAK inhibitors for the treatment of skin diseases” (THERAVANCE BIOPHARMA R&D IP, LLC, priority 2019, dated 2022)
